Reference: patent publication US20100179089A1, “Compositions and Methods to Manage the Inflammatory Basis of Chronic Disease Conditions and Maintain an Optimal Immune Response in Elderly” (priority 2009, published 2010)
Like-named read-outs stand apart in the source and are kept apart here.

Tests used:
protein synthesis = test: Amino acid supplementation and protein synthesis in normal, inflamed and inflamed with DHA conditions (FIG. 4); details: conditions of inflammation (FIG. 4)
Excerpt: Given the observed changes in protein intake and observed changes in protein synthesis in aging, it is believed that a hyperinflammed state compromises protein synthesis and further accentuates chronic disease related to arginine deficiency and malnutrition.
Omega-3 fatty acids, including but not limited to alpha-linolenic acid (ALA), eicosapentaenoic (EPA) and docosahexaenoic acids (DHA); omega-6 linoleic acid; and borage oil (also an omega-6 fatty acid) are currently used in different diets with the intention to improve immune dysfunction. […] Used with omega-3 fatty acids, arginine is believed to be more available to provide a normal response under conditions of inflammation. Dietary intake of omega-3 fatty acids by the elderly may favorably shift the balance in the production of PGE2, via […] and downregulation of arginase (as shown in FIG. 6) and, consequently, help avoid arginine deficiency and thereby improve or maintain optimal immune system function. […] The products of omega-6 fatty acid metabolism are believed to contribute to arginine deficiency and inflammation in this way. There have been numerous studies showing the benefits of dietary omega-3 fatty acids over omega-6 fatty acids in various physiologic conditions including coronary artery disease, chronic inflammatory conditions such as cancer, and other inflammatory mediated states.

muscle protein synthesis [1] = details: pigs with a sepsis-like syndrome, arginine supplementation; cited from earlier work
muscle protein synthesis [2] = details: cited from earlier work

Q: With `CC/C=C\C/C=C\C/C=C\C/C=C\C/C=C\C/C=C\CCC(=O)O` [DHA, docosahexaenoic acids] as the molecule, how does the Protein synthesis (protein synthesis) read?
A: improves the efficacy of arginine delivery in promoting protein synthesis

Q: Which results are given for `N=C(N)NCCC[C@H](N)C(=O)O` [arginine]?
A: Muscle protein synthesis (muscle protein synthesis [1]): improved; Muscle protein synthesis (muscle protein synthesis [2]; anesthetized rabbits, infusion): stimulated; Muscle protein breakdown (muscle protein synthesis [2]; post-absorptive rabbits, arginine added to the amino acid solution): unchanged
